Test results: publication PMC5126700 (Scientific Reports, 2016)

Key:
[1] = tested on: ERp57; details: cited from earlier work
[2] = biological target: T1, ERp57 (Homo sapiens, UniProt P30101); test: Isothermal Titration Calorimetry of ERp57 with silibinin; assay type: binding; details: Figure 5b, ERp57 5 μM, silibinin 50 μM
T1 construct: we performed the isothermal titration calorimetry of the whole protein and its two mutants; made in house; host or cells: E. coli BL21 (pET21)
T1 sequence (P30101 25-505): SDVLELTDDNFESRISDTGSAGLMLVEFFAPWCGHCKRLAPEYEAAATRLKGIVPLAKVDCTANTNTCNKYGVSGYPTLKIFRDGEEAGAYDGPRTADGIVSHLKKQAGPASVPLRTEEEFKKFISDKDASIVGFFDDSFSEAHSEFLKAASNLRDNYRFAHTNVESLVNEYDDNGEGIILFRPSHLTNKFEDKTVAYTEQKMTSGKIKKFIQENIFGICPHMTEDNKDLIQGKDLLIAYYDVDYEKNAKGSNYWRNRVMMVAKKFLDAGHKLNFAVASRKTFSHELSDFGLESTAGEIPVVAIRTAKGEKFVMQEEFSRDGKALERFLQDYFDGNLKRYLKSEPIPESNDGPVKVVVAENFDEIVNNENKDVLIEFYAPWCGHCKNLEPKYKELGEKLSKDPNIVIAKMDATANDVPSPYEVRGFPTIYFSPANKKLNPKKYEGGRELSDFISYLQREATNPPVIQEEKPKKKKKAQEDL
Method: Both the protein and the ligands were in the same buffer (see Materials and Methods). […] (Lower panel) Integrated heats of reaction plotted against the molar ratio of total ligand concentration to total protein concentration. […] The integrated heat of reaction is plotted against the molar ratio of total ligand concentration to total protein concentration.
ITC experiments were performed at 25 °C using a MicroCal ITC200 microcalorimeter (MicroCal Inc., Northampton, MA, USA). […] Samples were centrifuged before the experiments to eliminate possible aggregates. Protein and ligand solutions were degassed before use. Titrations were performed at 25 °C. The protein solution was placed in the sample cell, and each ligand solution was loaded into the syringe injector. The titrations involved 19 injections of 2 μL at 180 s intervals. The syringe stirring speed was set at 1,000 rpm. The reaction was very fast, as shown by the immediate appearance of an endothermic sharp peak following the addition of ligand to the protein and its deletion mutants solution in the microcalorimetric titration experiment. Reference titrations of ligand into buffer were used to correct for heats of dilution. […] The values of ΔH were measured for each titration, and fitting the binding isotherms with a one-site binding model yielded the values of the association constant (Ka). […]

## COc1cc(C2Oc3cc([C@H]4Oc5cc(O)cc(O)c5C(=O)[C@@H]4O)ccc3OC2CO)ccc1O (stereo partly drawn) [silibinin]
[1]
  affinity for ERp57 compared to calcitriol: at least two orders of magnitude lower
[2]
  n (best fit): 0.776 (±0.0183) sites/mole
[2]; read-out: Ka (best fit) (converted)
  Kd: 0.483 µM
